The text below walks through data of ChEMBL document CHEMBL5252529, “Small Molecules in Development for the Treatment of Spinal Muscular Atrophy” (J Med Chem, 2016).

Data set [1] can be described thus: Activation of rabbit psoas fast skeletal Myofibril. The data set is classed as tissue-based, Oryctolagus cuniculus, Muscle tissue.
Data set [2] can be described thus: Half life in mouse liver microsomes. Type of data set: ADME, Microsome. (Microsomes from liver hold many membrane-bound enzymes, among them those of drug oxidation.)
The nature of data set [3]: Aqueous solubility of compound at pH 7.4. Type of data set: physicochemical. Particulars: buffer.
A short description of data set [4]: Toxicity in Spinal muscular atrophy mouse assessed as survival rate at day 112 (reference value: 100 %). Particulars: in vivo.
The nature of data set [5]: AUClast in Spinal muscular atrophy mouse brain at 10 mg/kg, po by LC/MS-MS analysis. The data set is classed as ADME, organism-based. The arrangement: dose 10 mg/kg, route po.
The nature of data set [6]: AUClast in Spinal muscular atrophy mouse plasma at 10 mg/kg, po by LC/MS-MS analysis. Type of data set: ADME, organism-based. The arrangement: dose 10 mg/kg, route po.
Data set [7] is described as follows: Toxicity in Spinal muscular atrophy mouse assessed as survival rate at 10 mg/kg, ip administered daily. Type of data set: organism-based. Particulars: in vivo.
A short description of data set [8]: Increase in SMN2 expression in human HEK293 cells assessed as luciferase reporter activity incubated for 24 hrs. A general note: Reporter assays use an easily measured gene product as a stand-in for the process of interest.
Data set [9] concerns the target T1, m7GpppX diphosphatase (Homo sapiens, UniProt Q96C86).
T1 sequence (Q96C86 whole entry): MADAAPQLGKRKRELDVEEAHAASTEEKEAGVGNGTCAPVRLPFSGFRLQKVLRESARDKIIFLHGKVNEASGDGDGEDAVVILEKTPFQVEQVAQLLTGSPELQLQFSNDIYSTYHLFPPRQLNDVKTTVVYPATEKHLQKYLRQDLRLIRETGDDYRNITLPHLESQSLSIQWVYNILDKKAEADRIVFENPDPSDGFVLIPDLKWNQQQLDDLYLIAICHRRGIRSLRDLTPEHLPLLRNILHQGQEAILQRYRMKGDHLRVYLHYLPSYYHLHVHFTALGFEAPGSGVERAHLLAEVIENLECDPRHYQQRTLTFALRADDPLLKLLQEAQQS
As to the kind of experiment: Inhibition of human DcpS.

For data set [10], the system named is Mus musculus. Briefly: Modulation of human SMN2 mRNA level in Spinal muscular atrophy mouse brain tissue at 10 mg/kg, po measured after 4 hrs. The data set is classed as functional.
Data set [11] concerns Mus musculus. As to the kind of experiment: Modulation of human SMN2 protein level in Spinal muscular atrophy mouse model assessed as increase in protein level of muscle tissue at 10 mg/kg, ip.
The test system of data set [12] is Mus musculus. Briefly: Modulation of human SMN2 protein level in Spinal muscular atrophy mouse model assessed as increase in protein level of brain tissue at 10 mg/kg, ip.
The subject of data set [13] is Mus musculus. Briefly: Modulation of human SMN2 mRNA level in Spinal muscular atrophy mouse muscle tissue at 10 mg/kg, po measured after 4 hrs. Type of data set: functional.
The nature of data set [14]: Toxicity in Spinal muscular atrophy mouse assessed as survival rate at 0.3 mg/kg, ip administered daily for 40 days. The note with it: in vivo, 960 h, time 40 day. The data set is classed as organism-based.
Data set [15] is described as follows: Toxicity in Spinal muscular atrophy mouse assessed as survival rate at 1 to 3 mg/kg, po administered daily for 65 days. The data set is classed as organism-based. The note with it: in vivo, 1560 h, dose 1-3 mg/kg, time 65 day.
Data set [16] can be described thus: Brain to plasma ratio in Spinal muscular atrophy mouse at 3 mg/kg administered subcutaneously for 7 days. The note with it: route sc, time 7 day, read-out: BPR. Type of data set: ADME, organism-based.
The nature of data set [17]: Toxicity in Spinal muscular atrophy mouse assessed as survival rate (reference value: 15 %). The note with it: in vivo.
A short description of data set [18]: Brain to plasma ratio in Spinal muscular atrophy mouse at 3 mg/kg administered subcutaneously for 42 days. Type of data set: ADME, organism-based. The note with it: route sc, time 42 day, read-out: BPR.
Data set [19] is described as follows: Half life in human serum measured upto 30 min by HPLC analysis.
Data set [20] is described as follows: Toxicity in Spinal muscular atrophy mouse assessed as survival rate after 5 days. Particulars: in vivo, 120 h, time 5 day.
The nature of data set [21]: Acute toxicity in Spinal muscular atrophy mouse assessed as survival rate. The note with it: in vivo.
A short description of data set [22]: Toxicity in Spinal Muscular atrophy mouse assessed as increase in survival rate. The note with it: in vivo.

Molecules are shown by their SMILES. In brackets after ≈: the same amount, converted by molar mass.

By EC50 is commonly meant the concentration needed to bring the measured effect to its halfway point. The molecule `C#Cc1cnc2nc(O)n(C(CC)CC)c2n1` displayed an EC50 in [1] of 3.4 µM.

A word on the half-life: it is the time in which the quantity being followed falls by half. A higher half-life goes with slow loss. Usually solubility stands for how much of the substance goes into solution per volume. `CC(C)c1cc(C(=O)Nc2ccc(F)c(Cl)c2)no1` showed a half-life in data set [2] of 5 min. This molecule returned a solubility in data set [3] of 6 µM (≈ 1.7 µg/mL).

For the molecule `CC(C)c1cc(C(=O)Nc2ccccc2)no1`, the half-life in data set [2] turned out to be 5 min. In addition, the concentration in solution in data set [3] (solubility) came to 59 µM (≈ 13.6 µg/mL).

By AUC(0-t) is commonly meant exposure summed from dosing to a finite time, without extrapolation to infinity. With `Nc1nc(N)c2c(OCC3CCN(Cc4c(Cl)cccc4Cl)CC3)cccc2n1`, the results for the Activity in data set [4] and in [7] were 27% and 26%, respectively. In addition, the AUC(0-t) is 6760 ng·h/mL in [5] and 157 ng·h/mL in data set [6].

`COc1cc2c(c(OC)c1OC)C(c1cc(Br)ccc1F)CC(=O)N2` (stereo not drawn) displayed a half-life in [2] of 40 min. This molecule also gave a solubility in data set [3] of 4 µM (≈ 1.64 µg/mL). Besides, the concentration for a half-maximal effect (EC50) at 24 h in [8] was 8.3 µM.

In turn, `CC(C)c1cc(C(=O)Nc2ccccn2)no1` had a half-life in [2] greater than 120 min. Also, the solubility in [3] came to 77 µM (≈ 17.8 µg/mL).

What is called IC50 is the point on the concentration scale where inhibition reaches its midpoint. A low value points to greater potency in that assay. Regarding `Nc1nc(N)c2c(OCC3CCN(C(=O)c4cccc([125I])c4)CC3)cccc2n1`, the IC50 in data set [9] stood at 0.036 µM.

As for `CCN1CCC(c2cc(C)c3nc(-c4cc5c(C)nc(C)cn5n4)cc(=O)n3c2)CC1`, the Activity in data set [10] amounted to 90%; in data set [11], 90%; in [12] it was 150%; in [13], 50%; in [14], 50%; in data set [15] it was 90%.

As for `CC(C)CCC[C@@H](C)[C@H]1CC[C@H]2[C@@H]3CCC4=CC(=NO)CC[C@]4(C)[C@H]3CC[C@]12C` [OLESOXIME], the Kp at 168 h in data set [16] was 0.35. Besides, the Activity in data set [17] is reported as 45%. For the same molecule, the Kp at 1008 h in data set [18] is 0.51.

In data set [19], `CCCC(=O)[O-].[Na+]` [SODIUM BUTYRATE] registered a half-life at 0.5 h of 6 min.

On to `CC(/C=C/C(=O)NO)=C\[C@@H](C)C(=O)c1ccc(N(C)C)cc1` [TRICHOSTATIN], for which the figures for the Activity in data set [20] and in data set [21] were 19% and 40%, respectively.

Consider `O=C(CCCCCCC(=O)Nc1ccccc1)NO` [VORINOSTAT], for which the Activity in [22] was found to be 30%.
